Usually IC50 stands for the concentration that gives 50% inhibition.

The subject of experiment [1] is U87MG cells. Briefly: Cell proliferation, CCK-8 colorimetric assay. Type of experiment: cell-based. As for the experimental part:
(§1) U87MG, and PANC-1 cells were grown in Dulbecco's Modified Eagle Medium (DMEM) with 10% fetal bovine serum (FBS) and 1% penicillin/streptomycin. MDA-MB-468 cells were grown in DMEM and Ham's F-12 medium (DMEM/F12) with 10% FBS and 1% penicillin/streptomycin. A2780 and BxPC3 cells were grown in Roswell Park Memorial Institute medium (RPMI) 1640+L-glutamine, with 10% FBS and 1% penicillin/streptomycin. D270 cells were grown in MEM (Richter's modification, no phenol red) with 10% FBS and 0.1% Gentamicin. Unless otherwise specified, cells were incubated at 37° C., 5% CO2. Flow cytometry was performed using an EMD Millpore Guava EasyCyte 8HT flow cytometer and the resulting data were evaluated using FlowJo software provided by TreeStar, Inc. Cell proliferation was measured using the Dojindo Cell Counting Kit-8 by replacing the media in each well with 100 μL of media containing 10% WST-8. After incubation for 1 h at 37° C., absorbance, A, at 450 nm was measured with a BioTek Synergy H4 microtiter plate reader. The background signal of CCK-8 alone was subtracted from all samples. Cell proliferation was then expressed as a percentage of absorbance relative to the control of untreated cells (Equation 2). Nonlinear regression analysis was performed using GraphPad Prism.
Next, the potency of each KDC was tested in a cell-proliferation experiment. […] Cells were seeded in a 96-well plate at a density of 2,500 cells per well and grown overnight at 37° C., 5% CO2 in DMEM with 10% FBS and 1% penicillin/streptomycin. Cells were subsequently treated with 100 μL of fresh media, containing varying concentrations of drug, protein, or protein-drug conjugate and incubated for 4 d at 37° C., 5% CO2. Cell proliferation was measured according to the method described in Section 1.3. Error bars represent the standard deviation of experiments performed in triplicate. […] Given that the linker must be cleaved to release free Gemcitabine in order for the payload to become active, the low potency of 5b can be explained by the greater stability of the carbamate group as compared to the other linkers tested.
For orientation: Tetrazolium dyes change colour on reduction, which living cells bring about.

Experiment [2] concerns U87MG cells. Nature of the experiment: Premature drug release study: cell proliferation (CCK-8) with hENT1 inhibitor 6 co-administered. The format is cell-based. The note with it: for Effect of hENT1 inhibitor 6 on potency (ED50) (in words): U87MG cells, increasing concentrations of 6 up to 10 μM; for Fold Increase in ED50 in U87MG Cells: ED50 with 6 / ED50 without 6, minus 1. As for the experimental part:
as §1
The relative extent of premature drug-release in the cases of 5a, 5c, and 5d was next determined in order to identify the linker best-suited for delivering the drug payload intracellularly. An established technique for blocking the cellular uptake of Gemcitabine by using S (4-nitrobenzyl)-6-thioinosine (6) was employed, which is known to inhibit human equilibrative nucleoside transporters, such as hENT1. Because hENT1 is a critical regulator of the cellular internalization of Gemcitabine, it was reasoned that by inhibiting its activity with 6, the cytotoxic effect of any drug payload that was released in the extracellular environment could be diminished. It was anticipated that this would allow the distinction between KDCs that were potent due to the undesirable release of Gemcitabine outside of the cell from those that released Gemcitabine intracellularly (FIG. 6). The extent of premature drug release in the extracellular environment was studied by inhibiting activity of nucleoside transporters (such as hENT1) of U87MG cells through the use of the hENT1 inhibitor S-(4-nitrobenzyl)-6-thioinosine (6). […] In a similar fashion, it was expected that for KDCs which released a significant amount of the drug payload in the extracellular environment, an increase in the concentration of 6 should result in a concomitant increase in ED50 value.
Media used to prepare varying concentrations of drug, protein, or protein-drug conjugate also contained varying concentrations of the hENT1 inhibitor, 6. Additionally, prior to treatment, cell were incubated at 37° C., 5% CO2 with fresh media containing the varying concentrations of 6 for 2 h. Cell proliferation was measured using the Cell Counting Kit-8 by replacing the media in each well with 100 μL of media containing 10% WST-8. After incubation for 1 h at 37° C., absorbance at 450 nm was measured with a Synergy H4 microtiter plate reader. ED50 values were determined by nonlinear regression analysis. Example dose-response curves for 3 (FIG. 7) and 5d (FIG. 8) are provided. Cell proliferation was measured according to the method described in Section 1.3. Error bars represent the standard deviation of experiments performed in triplicate.
These values were normalized as Fold Increase in ED50 (defined in Equation 2) by dividing the ED50 of each drug when 6 was co-administered at concentration=C by the ED50 of that same drug when no 6 was added, then subtracting 1 (thus, a “0-fold increase” would mean no increase, while a “1-fold increase” would mean that the ED50 value had doubled). Fold Increase in ED50 for each drug at each concentration of 6 is provided in Table 5, and these values were used to generate FIG. 9.

Experiment [3] concerns U87MG cells. Nature of the experiment: Integrin-blocking competition: cell proliferation (CCK-8) after pre-treatment with EETI-2.5F (1). The format is cell-based. The conditions noted are these: 1 μM 1, 3 h pre-treatment and co-treatment. As for the experimental part: as §1
One possible explanation for the apparent hENT1-independence of 5d is that its route of internalization could be integrin-mediated. The role of integrin-binding in the biological potency and hENT1-independence of 5d was determined. A competition experiment was carried out in which U87MG cells were pre-treated with unconjugated EETI-2.5F (1) in order to block integrins on the cell surface. The role of integrin-binding was studied by measuring the proliferation of U87MG cells that had been pre-treated with EETI-2.5F (1) when exposed to increasing doses of 3 and KDCs 5a, 5c, and 5d. […] Media used to prepare varying concentrations of drug, protein, or protein-drug conjugate also contained 1 μM of 1. Prior to treatment, cells were incubated for 3 h at 37° C., 5% CO2 with fresh media containing 1 μM 1. After this pre-treatment, cells were incubated with varying concentrations of 5a, 5c, or 5d for 24 h and then media was replaced with fresh media and cells were incubated for an additional 48 h. Cell proliferation was measured using the Cell Counting Kit-8 by replacing the media in each well with 100 μL of media containing 10% WST-8. After incubation for 1 h at 37° C., absorbance at 450 nm was measured with a Synergy H4 microtiter plate reader. Cell proliferation was measured according to the method described in Section 1.3. Error bars represent the standard deviation of experiments performed in triplicate.

For experiment [4], the system named is A2780 ovarian cancer cells. Nature of the experiment: Cell proliferation, CCK-8 colorimetric assay. Type of experiment: cell-based. The note with it: Homo sapiens, 96 h, 4 d after treatment, read-out: ED50 (nM), cell growth inhibition. As for the experimental part:
as §1
(§2) Having identified KDC 5d as a potent inhibitor of U87MG cells with desirable payload-release properties, its efficacy against a variety of other cell lines in comparison with Gemcitabine (3) was next tested. Cells were seeded in a 96-well plate at a density of 2,500 cells per well and grown overnight at 37° C., 5% CO2 in the media described in Section 1.3. Cells were subsequently treated with 100 μL of fresh media, containing 50 nM of 3 or 5d. Cells were incubated at 37° C., 5% CO2 for 4 d. Cell proliferation was measured using the Cell Counting Kit-8 by replacing the media in each well with 100 μL of media containing 10% WST-8. After incubation for 1 h at 37° C., absorbance at 450 nm was measured with a Synergy H4 microtiter plate reader. Cell proliferation was measured according to the method described in Section 1.3. Error bars represent the standard deviation of experiments performed in triplicate.

For experiment [5], the system named is BxPC3 pancreatic cancer cells. Briefly: Cell proliferation, CCK-8 colorimetric assay. Type of experiment: cell-based. The conditions noted are these: Homo sapiens, BXPC-3, 96 h, 4 d after treatment, read-out: ED50 (nM), cell growth inhibition. As for the experimental part: as §1, §2
Experiment [6] concerns D270 glioblastoma cells. Nature of the experiment: Cell proliferation, CCK-8 colorimetric assay. Type of experiment: cell-based. The conditions noted are these: 96 h, 4 d after treatment, read-out: ED50 (nM), cell growth inhibition. As for the experimental part: as §1, §2
Experiment [7] has as its system MDA-MB-468 breast cancer cells. Nature of the experiment: Cell proliferation, CCK-8 colorimetric assay. The conditions noted are these: Homo sapiens, MDA-MB-468, 96 h, 4 d after treatment, read-out: ED50 (nM), cell growth inhibition. The format is cell-based. The protocol:
as §1, §2

In experiment [8] the test system is PANC-1 pancreatic cancer cells. Briefly: Cell proliferation, CCK-8 colorimetric assay. The note with it: Homo sapiens, 96 h, 4 d after treatment, read-out: ED50 (nM), cell growth inhibition. Type of experiment: cell-based. The protocol:
as §1, §2

In experiment [9] the test system is U87MG cells. Briefly: Competition binding assay with AF488-labeled EETI-2.5F (AF488-1), flow cytometry. The conditions noted are these: competition with 1 nM AF488-1, 4° C., 3 hours, read-out: IC50 (nM), binding affinity. As for the experimental part:
Once the knottin-drug conjugates 5a-d were prepared, their binding affinity to U87MG glioblastoma cells, which are known to have elevated expression of tumor-associated integrins, was tested. […] To measure the relative binding affinities of knottins 1 and 2 and KDCs 5a-d, competition binding assays were performed using AlexaFluor 488-conjugated EETI-2.5F (AF488-1) as previously described (J. W. Kim, et al., J. Am. Chem. Soc. 2015, 137, 6-9). Cells (5×10^4 per sample) were detached with 0.05% Trypsin-EDTA, washed with IBB (25 mM Tris pH 7.4, 150 mM NaCl, 2 mM CaCl2, 1 mM MgCl2, 1 mM MnCl2, and 0.1% bovine serum albumin), and incubated with 1 nM AF488-1 and varying concentrations of competitors in 800 μL of IBB at 4° C. for 3 hours. The cells were washed twice with 800 μL of PBSA (phosphate buffered saline containing 0.1% bovine serum albumin) and the fluorescence of the surface-bound AF488-1 was determined using flow cytometry. The fluorescence was normalized to that of cells treated with AF488-1 alone to obtain the fraction bound. Half-maximal inhibitory concentration (IC50) values were determined by nonlinear regression analysis. Error bars represent the standard deviation of experiments performed in triplicate.
On the technique in general: In flow cytometry, cells or beads pass a laser one at a time.

Where two headings read alike, the source gives them in different places.

Take `Nc1ccn([C@@H]2O[C@H](CO)[C@@H](O)C2(F)F)c(=O)n1` [compound 3, Gemcitabine, reference compound]: the EC50 in experiment [1] (Homo sapiens, U-87 MG, 96 h, U87MG cells, 4 d incubation, vs untreated control, read-out: ED50 (nM), potency) stood at 1.1 ± 1.4 nM; in [1] (Homo sapiens, U-87 MG, 96 h, U87MG glioblastoma, 4 d after treatment, read-out: ED50 (nM), cell growth inhibition), 1.7 ± 1.4 nM; in experiment [4], 0.5 ± 0.02 nM; in experiment [5], 18.4 ± 1.3 nM; in experiment [6], 1.5 ± 0.4 nM; in experiment [7], 17.3 ± 6.8 nM. The EC50 in experiment [8] is 52.8 ± 4.9 nM. Besides, the “Effect of hENT1 inhibitor 6 on potency (ED50) (in words)” value in experiment [2] is “increased significantly”. The “Fold Increase in ED50 in U87MG Cells” value in [2] ([6] = 0 nM) is 0; in experiment [2] ([6] = 1 nM), 0.2 ± 0.4; in experiment [2] ([6] = 10 nM), 1.5 ± 0.1; in [2] ([6] = 100 nM) it was 15.8 ± 0.3; in experiment [2] ([6] = 1000 nM) it was 44.7 ± 0.3; in experiment [2] ([6] = 10000 nM) it was 128.6 ± 2.8. Besides, the “Effect of integrin blocking by pre-treatment with 1 on potency (in words)” value in experiment [3] is on record as “no effect on potency”.

On to `CC(C)C[C@@H]1NC(=O)[C@@H]2CSSC[C@@H](C(=O)NCC(=O)O)NC(=O)[C@H](Cc3ccccc3)NC(=O)CNC(=O)[C@H](CC(N)=O)NC(=O)[C@@H]3CCCN3C(=O)CNC(=O)[C@@H]3CSSC[C@H](NC(=O)[C@H]([C@@H](C)O)NC(=O)[C@H](CC(C)C)NC(=O)[C@@H]4CCCN4C(=O)[C@@H]4CCCN4C(=O)[C@H](CC(N)=O)NC(=O)[C@H](CC(=O)O)NC(=O)CNC(=O)[C@H](CCCNC(=N)N)NC(=O)[C@@H]4CCCN4C(=O)[C@H](CCCNC(=N)N)NC(=O)[C@@H]4CCCN4C(=O)[C@@H](NC(=O)CN)CSSC[C@H](NC(=O)CNC(=O)[C@H](C)NC1=O)C(=O)N[C@@H](C(C)C)C(=O)N3)C(=O)N[C@@H](CCCn1cc(CCC(=O)Nc3ccn([C@@H]4O[C@H](CO)[C@@H](O)C4(F)F)c(=O)n3)nn1)C(=O)N[C@@H](CCC(N)=O)C(=O)N[C@@H](CC(=O)O)C(=O)N[C@@H](CO)C(=O)N[C@@H](CC(=O)O)C(=O)N2` [5c], for which the IC50 in experiment [9] was 2.8 ± 0.2 nM. Further, the “Potency / growth inhibition in U87MG cells (in words)” value in experiment [1] (U87MG cells, 4 d) is reported as “low-nanomolar ED50 values”. Moreover, the EC50 in experiment [1] (U87MG cells, 4 d incubation, vs untreated control, read-out: ED50 (nM), potency) turned out to be 8.9 ± 1.2 nM. Moreover, the “Effect of hENT1 inhibitor 6 on potency (ED50) (in words)” value in experiment [2] was “much less sensitive”. In addition, the “Fold Increase in ED50 in U87MG Cells” value was determined as 0 in [2] ([6] = 0 nM); 0.5 ± 0.2 in [2] ([6] = 1 nM); 1.0 ± 0.2 in [2] ([6] = 10 nM); 7.8 ± 4.8 in [2] ([6] = 100 nM); 18.0 ± 5.2 in [2] ([6] = 1000 nM); 31.1 ± 5.1 in [2] ([6] = 10000 nM). The “Effect of integrin blocking by pre-treatment with 1 on potency (in words)” value in experiment [3] was “did not diminish the potency”.
